Patent publication US8088822B2, “Use of fenretinide or bioactive derivatives thereof and pharmaceutical compositions comprising the same” (priority 2008, dated 2012)
Where two headings read alike, the source gives them in different places.

Assays:
[1] = tested on: normal hematopoietic stem cells (HSC); test: Apoptosis/toxicity in normal hematopoietic stem cells; type: cell-based, human; conditions: representative specimen
Source text: (§1) Fresh bone marrow (BM) cells were obtained from 38 patients with CML and 5 non-leukemic donors, 25 AML, 17 ALL, and 8 normal specimens with informed consent according to the Declaration of Helsinki. Approval was obtained from Institutional Review Board at the School of Medicine in Shanghai Jiao Tong University. BM mononuclear cells were isolated by Ficoll density gradient centrifugation (Shanghai Second Reagent Factory, Shanghai, China). CD34^+ Cell were selected using EasySep® Human CD34 Positive Selection kit (Stem Cell Technologies, Vancouver, BC, Canada) according to the manufacturer's instructions. The purity of CD34 cells ranged between 92 and 98% in all samples detennined by flow cytometry. The CD34^+ cells were cultured in a serum-free medium (StemPro 34; Gibco BRL, Gaithersburg, Md.) supplemented with growth factors (PeproTech, London, United Kingdom) (20). The growth factors consisted of GM-CSF (200 pg/mL), G-CSF (1 ng/mL); SCF (200 pg/mL); LIF (50 pg/mL), MIP-1α (200 pg/mL) and IL-6 (1 ng/mL).
Primitive AML and CML subpopulations (CD34^+ cells) were identified using CD34-PE in combination with CD38-APC, and followed by double-labeling with 7AAD and Annexin V antibodies for apoptosis assessment. […] Subsequently, the samples were incubated at room temperature for 15 minutes and analyzed by flow cytometry. […]

K562 = test: Apoptosis in CML cell line K562; type: cell-based; conditions: 4 μM fenretinide, 0.25 μM imatinib, 0.1 μM MG132, alone or combined
Experimental: (§2) 2×10^5 cultured cells were used for evaluating apoptosis using an ApoAlert Annexin V-FITC Apoptosis Kit (BD Biosciences). Cells were washed once by PBS, resuspended in 200 μl Annexin-V binding buffer, and then stained with Annexin V-FITC 5 μl, PI 10 μl for 15 min at room temperature in the dark. Cells were subsequently analyzed by flow cytometry.

[2] = tested on: K562, HL60 and NB4 leukemia cell lines; test: Apoptosis versus intracellular ROS level in leukemia cell lines; type: cell-based; conditions: series of concentrations
Experimental: as §2
The intracellular generation of reactive oxygen species (ROS) was measured using of the oxidation-sensitive fluorescent dye 2,7-dichlorofluorescin diacetate (DCFH-DA) (Molecular Probes). After 3 h exposure of fenretinide, 2×10^5 cells were harvested and washed once with PBS, then loaded with 1 ml PBS containing 10 μM of DCFH-DA. The cells were then incubated at 37° C. for 30 min and the fluorescence intensity was measured at 530 nm.
Fenretinide induces ROS-dependent apoptosis is the common feature in a variety of tumors (Sun et al., 1999). Here, we extensively explored the relationship between intracellular ROS levels and apoptosis outcomes induced by fenretinide in a panel of leukemia cell lines, including K562, HL60 and NB4. The intracellular ROS levels in leukemic cells were evaluated by DCFH-DA staining, and apoptosis of leukemic cells induced by fenretinide treatment with a series of concentrations was examined through annexin-V FITC and 7AAD double staining.

CML CD34+ cells = test: Colony forming assay in primary CML CD34+ cells; type: cell-based, human; conditions: 14 days; for inhibition at 2 µM / inhibition at 4 µM: Homo sapiens, 336 h; for inhibition at 2 µM: 2 μM fenretinide; for inhibition at 4 µM: 4 μM fenretinide
Source text: as §1, with “The purity of CD34 cells ranged between 92 and 98% in all samples detennined by flow cytometry.” left out
A quantity of 1000 CD34^+ cells were plated in semisolid methylcellulose-based media (Methocult H4434: Stem Cell Technologies, Vancouver, BC, Canada). After incubation at 37° C. in a fully humidified atmosphere of 5% CO2 for 14 days, granulocyte macrophage-colony-forming units (CFU-GM), erythroid burst-forming units (BFU-E), granulocyte, erythrocyte and monocyte, megakaryocyte-colony-forming units (CUF-GEMM) were counted. Only clusters with >50 cells were counted as a colony.
We further performed study to examine the effects of fenretinide on colony forming in primary CML cells derived from 38 bone marrow specimens of CML patients (TABLE 1). First, CML CD34^+ Cells were isolated using EasySep® Human CD34 Positive Selection kit (Stem Cell Technologies, Vancouver, BC, Canada). Upon treated with 2 μM and 4 μM fenretinide, colony forming assays were performed respectively on granulocyte macrophage-colony-forming units (CFU-GM), erythroid burst-forming units (BFU-E), granulocyte, erythrocyte and monocyte, megakaryocyte-colony-forming units (CFU-GEMM).

[3] = read-out: inhibition of BFU-E number
[4] = CFU-GM, read-out: inhibition of CFU-GM number

CC1=C(/C=C/C(C)=C/C=C/C(C)=C/C(=O)Nc2ccc(O)cc2)C(C)(C)CCC1 [fenretinide, N-(4-hydroxyphenyl)retinamide]
change in the cell proportion of normal HSC [1]: 5.36% | apoptosis in normal HSC ([1]; fenretinide alone or co-treatment with imatinib): 19.08% | apoptosis rate (K562): 2.46% | susceptibility to fenretinide-induced apoptosis versus level of intracellular ROS [2]: positively correlated | inhibition at 2 µM (CML CD34+ cells; [3]): 24% | inhibition at 4 µM (CML CD34+ cells; [3]): 66% | inhibition at 2 µM (CML CD34+ cells; [4]): 19% | inhibition at 4 µM (CML CD34+ cells; [4]): 36 ± 9% | GFU-GEMM formed by the more primitive progenitor cells (CML CD34+ cells; fenretinide 2 μM and 4 μM): could not be detected
